Assay results reported in patent US4255183A, “Substituted phenyl urea and herbicides for use in paddy field” (Hokko Chemical Industry Co., Ltd., priority 1977, dated 1981).

Key:
[1] = system: Echinochloa crus-galli var. oryzicola; experiment: Test Example 1: pot test on selectivity, inhibition of Echinochloa crus-galli var. oryzicola; type: in vivo; conditions: dry weight 30 days after treatment
Method: (§1) In a Wagner pot of 1/500 are, paddy field soil (alluvial soil) was placed and 50 seeds of Echinochloa crus-galli var. oryzicola and 30 seeds of paddy rice were seeded in the surface layer of said soil and the submerging depth was kept at about 1 cm. When Echinochloa crus-galli var. oryzicola reached at the one leaf stage and 5-leaf stage, the emulsion of a predetermined concentration, prepared according to Example 4 was added dropwise. After 30 days from the treatment with the chemical, dry weights of Echinochloa crus-galli var. oryzicola and paddy rice were measured and the inhibition rate was calculated with reference to untreated area. [formula]
(§2) The comparative chemicals used, i.e. DCMU and Linuron, were those commercially available, and the comparative chemicals A and B used were prepared according to the process for formulating the compound of this invention.

paddy rice [2] = experiment: Test Example 1: pot test on selectivity, inhibition of paddy rice; type: in vivo; conditions: dry weight 30 days after treatment
Method: as §1, with “When Echinochloa crus-galli var. oryzicola reached at the one leaf stage and 5-leaf stage, the emulsion of a predetermined concentration, prepared according to Example 4 was added dropwise.” left out
as §2

[3] = system: Echinochloa crus-galli var. oryzicola; experiment: Test Example 2: concrete pot test on killing effect, Echinochloa crus-galli var. oryzicola; type: in vivo; conditions: granule, 30 days after treatment
Method: as §1
(§3) In a concrete pot of 1/400 are (50 cm×50 cm), paddy field soil (alluvial soil) was placed and 200 seeds of Echinochloa crus-galli var. oryzicola were seeded in 10 surface layer of said soil and the soil was submerged at about 3 cm depth. Before emergence of Echinochloa crus-galli var. oryzicola, paddy rice at 2.5-leaf stage (Asahi species) was transplanted at the rate of 8 stubs per pot, planting 3 seedlings per stub. At the one-leaf stage (3.5 leaves stage of paddy rice) and 5 leaves stage (7 leaves stage of paddy rice) of Echinochloa crus-galli var. oryzicola, the granule prepared according to Example 1 was applied. […] 30 Days after the treatment with the chemical, examination was made in the similar manner as Test Example 1 to obtain results as shown in Table 2.
(§4) In the table, as the comparative chemicals CPN, Benthiocarb, Molinate and Simetryne, those commercially available were used and the comparative chemicals A and B (as mentioned before) used were prepared according to the process for preparing the compound of this invention.

paddy rice [4] = experiment: whole plant or invertebrate; type: in vivo, paddy rice (Asahi species); conditions: granule, 30 days; for Inhibition (%) by treatment at 1-leaf stage of E. crus-galli var. oryzicola, paddy rice: rice at 3.5 leaves stage; for Inhibition (%) by treatment at 5-leaf stage of E. crus-galli var. oryzicola, paddy rice: rice at 7 leaves stage
Method: as §1, §3, §4

Compound: CC(Cl)=CCOc1ccc(NC(=O)N(C)C)cc1 [Comparative chemical A]
- Inhibition (%) by treatment at 1-leaf stage, E. crus-galli var. oryzicola ([1]; 75 g/10 are): 87%
- Inhibition (%) by treatment at 5-leaf stage, E. crus-galli var. oryzicola ([1]; 75 g/10 are): 37%
- Inhibition (%) by treatment at 1-leaf stage, E. crus-galli var. oryzicola ([1]; 150 g/10 are): 100%
- Inhibition (%) by treatment at 5-leaf stage, E. crus-galli var. oryzicola ([1]; 150 g/10 are): 67%
- Inhibition (%) by treatment at 1-leaf stage, E. crus-galli var. oryzicola ([1]; 300 g/10 are): 100%
- Inhibition (%) by treatment at 5-leaf stage, E. crus-galli var. oryzicola ([1]; 300 g/10 are): 82%
- Inhibition (%) by treatment at 1-leaf stage, E. crus-galli var. oryzicola ([1]; 600 g/10 are): 100%
- Inhibition (%) by treatment at 5-leaf stage, E. crus-galli var. oryzicola ([1]; 600 g/10 are): 95%
- Inhibition (%) by treatment at 1-leaf stage, E. crus-galli var. oryzicola ([1]; 900 g/10 are): 100%
- Inhibition (%) by treatment at 5-leaf stage, E. crus-galli var. oryzicola ([1]; 900 g/10 are): 100%
- Inhibition (%) by treatment at 1-leaf stage, paddy rice (paddy rice [2]; 75 g/10 are): 0%
- Inhibition (%) by treatment at 5-leaf stage, paddy rice (paddy rice [2]; 75 g/10 are): 0%
- Inhibition (%) by treatment at 1-leaf stage, paddy rice (paddy rice [2]; 150 g/10 are): 0%
- Inhibition (%) by treatment at 5-leaf stage, paddy rice (paddy rice [2]; 150 g/10 are): 0%
- Inhibition (%) by treatment at 1-leaf stage, paddy rice (paddy rice [2]; 300 g/10 are): 0%
- Inhibition (%) by treatment at 5-leaf stage, paddy rice (paddy rice [2]; 300 g/10 are): 0%
- Inhibition (%) by treatment at 1-leaf stage, paddy rice (paddy rice [2]; 600 g/10 are): 15%
- Inhibition (%) by treatment at 5-leaf stage, paddy rice (paddy rice [2]; 600 g/10 are): 0%
- Inhibition (%) by treatment at 1-leaf stage, paddy rice (paddy rice [2]; 900 g/10 are): 35%
- Inhibition (%) by treatment at 5-leaf stage, paddy rice (paddy rice [2]; 900 g/10 are): 12%
- Inhibition (%) by treatment at 1-leaf stage of E. crus-galli var. oryzicola, E. crus-galli var. oryzicola ([3]; 100 g/10 are): 100%
- Inhibition (%) by treatment at 5-leaf stage of E. crus-galli var. oryzicola, E. crus-galli var. oryzicola ([3]; 100 g/10 are): 48%
- Inhibition (%) by treatment at 1-leaf stage of E. crus-galli var. oryzicola, E. crus-galli var. oryzicola ([3]; 300 g/10 are): 100%
- Inhibition (%) by treatment at 5-leaf stage of E. crus-galli var. oryzicola, E. crus-galli var. oryzicola ([3]; 300 g/10 are): 72%
- Inhibition (%) by treatment at 1-leaf stage of E. crus-galli var. oryzicola, E. crus-galli var. oryzicola ([3]; 900 g/10 are): 100%
- Inhibition (%) by treatment at 5-leaf stage of E. crus-galli var. oryzicola, E. crus-galli var. oryzicola ([3]; 900 g/10 are): 98%
- Inhibition (%) by treatment at 1-leaf stage of E. crus-galli var. oryzicola, paddy rice (paddy rice [4]; 100 g/10 are): 0%
- Inhibition (%) by treatment at 5-leaf stage of E. crus-galli var. oryzicola, paddy rice (paddy rice [4]; 100 g/10 are): 0%
- Inhibition (%) by treatment at 1-leaf stage of E. crus-galli var. oryzicola, paddy rice (paddy rice [4]; 300 g/10 are): 0%
- Inhibition (%) by treatment at 5-leaf stage of E. crus-galli var. oryzicola, paddy rice (paddy rice [4]; 300 g/10 are): 0%
- Inhibition (%) by treatment at 1-leaf stage of E. crus-galli var. oryzicola, paddy rice (paddy rice [4]; 900 g/10 are): 23%
- Inhibition (%) by treatment at 5-leaf stage of E. crus-galli var. oryzicola, paddy rice (paddy rice [4]; 900 g/10 are): 5%
